The source of these data is ChEMBL document CHEMBL1132608, “Structure-activity relationship of diaryl phosphonate esters as potent irreversible dipeptidyl peptidase IV inhibitors” (J Med Chem, 1999).

pIC50: −log10 of the molar value.

In one series the target is Dipeptidyl peptidase 4 (Homo sapiens, UniProt P27487).
Series [1] has as its target T1, Prolyl endopeptidase (Homo sapiens) (UniProt P48147).
T1 sequence (whole entry): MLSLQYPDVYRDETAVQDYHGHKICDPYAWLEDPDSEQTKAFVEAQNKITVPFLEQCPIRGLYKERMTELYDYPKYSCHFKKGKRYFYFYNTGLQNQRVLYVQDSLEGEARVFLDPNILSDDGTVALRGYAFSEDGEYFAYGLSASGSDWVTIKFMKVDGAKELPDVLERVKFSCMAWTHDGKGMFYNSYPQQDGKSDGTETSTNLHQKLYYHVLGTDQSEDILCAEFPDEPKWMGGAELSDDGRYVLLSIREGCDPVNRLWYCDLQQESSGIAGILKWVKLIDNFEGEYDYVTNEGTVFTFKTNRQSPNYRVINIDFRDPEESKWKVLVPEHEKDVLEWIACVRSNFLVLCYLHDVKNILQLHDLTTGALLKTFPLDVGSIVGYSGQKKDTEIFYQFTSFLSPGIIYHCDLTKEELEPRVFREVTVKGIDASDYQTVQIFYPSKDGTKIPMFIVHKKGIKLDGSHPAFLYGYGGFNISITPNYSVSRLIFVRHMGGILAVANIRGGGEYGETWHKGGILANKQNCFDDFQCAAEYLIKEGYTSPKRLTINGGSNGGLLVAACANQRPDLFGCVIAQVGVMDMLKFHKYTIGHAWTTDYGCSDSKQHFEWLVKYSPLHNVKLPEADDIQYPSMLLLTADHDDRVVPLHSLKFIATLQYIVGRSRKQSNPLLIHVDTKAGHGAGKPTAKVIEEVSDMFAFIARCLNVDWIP
The series can be described thus: Effect on the activity of prolyl endopeptidase (PEP) is evaluated at 1 mM.

In series [2] the target is T1, Prolyl endopeptidase (Homo sapiens). Put plainly: Effect on the activity of prolyl endopeptidase (PEP) is evaluated at the IC50 concentration for DPPIV.
Series [3] is described as follows: Functional stability in plasma was estimated by fitting the inverse of apparent IC50 values verses time with a single-exponential decay. The format is ADME, cell-free.
The target of series [4] is Aminopeptidase N (Homo sapiens) (UniProt P15144). The series can be described thus: Effect on the activity of membrane alanyl aminopeptidase (MAAP) is evaluated at a concentration of 1 mM.
Aminopeptidase N (Homo sapiens), sequence (P15144 whole entry): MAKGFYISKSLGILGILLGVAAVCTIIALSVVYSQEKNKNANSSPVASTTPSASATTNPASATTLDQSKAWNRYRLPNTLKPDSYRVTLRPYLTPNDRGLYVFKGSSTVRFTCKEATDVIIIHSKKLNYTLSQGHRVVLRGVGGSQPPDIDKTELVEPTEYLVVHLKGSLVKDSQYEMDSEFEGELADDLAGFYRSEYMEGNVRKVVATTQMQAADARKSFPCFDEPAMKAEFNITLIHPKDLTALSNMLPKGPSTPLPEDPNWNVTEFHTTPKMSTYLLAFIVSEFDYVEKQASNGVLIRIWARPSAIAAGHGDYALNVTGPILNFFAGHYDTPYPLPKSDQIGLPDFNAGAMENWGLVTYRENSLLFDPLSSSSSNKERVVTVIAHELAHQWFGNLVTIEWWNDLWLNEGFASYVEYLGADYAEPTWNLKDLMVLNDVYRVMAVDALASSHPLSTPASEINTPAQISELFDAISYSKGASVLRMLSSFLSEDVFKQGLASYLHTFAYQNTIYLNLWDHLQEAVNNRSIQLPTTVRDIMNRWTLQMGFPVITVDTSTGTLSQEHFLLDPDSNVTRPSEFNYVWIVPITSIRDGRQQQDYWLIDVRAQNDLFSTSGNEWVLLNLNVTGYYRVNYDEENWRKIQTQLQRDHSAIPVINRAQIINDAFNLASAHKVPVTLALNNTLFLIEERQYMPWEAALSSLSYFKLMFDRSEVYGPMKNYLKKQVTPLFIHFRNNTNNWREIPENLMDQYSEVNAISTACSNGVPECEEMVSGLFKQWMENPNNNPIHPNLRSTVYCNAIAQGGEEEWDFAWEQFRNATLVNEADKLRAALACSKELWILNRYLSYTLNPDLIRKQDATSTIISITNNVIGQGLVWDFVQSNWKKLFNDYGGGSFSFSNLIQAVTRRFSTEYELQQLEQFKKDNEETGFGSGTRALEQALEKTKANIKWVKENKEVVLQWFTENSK
The species named for series [5] is Homo sapiens. The series can be described thus: Effect on the activity of elastase is evaluated at a concentration of 1 mM. The series is classed as functional.
Series [6] can be described thus: Effect on the activity of membrane alanyl aminopeptidase (MAAP) is evaluated at the IC50 concentration for DPPIV.
Series [7] concerns the target Dipeptidyl peptidase 4 (Mus musculus) (UniProt P28843).
Description: Effect on the activity of Dipeptidylpeptidase II (DPP II) is evaluated at a concentration of 1 mM.
Series [8] shares this target. This is another data set of the same source.
Description: Effect on the activity of Dipeptidylpeptidase II (DPP II) is evaluated at the IC50 concentration for DPPIV.
For series [9], the species on record is Homo sapiens. Put plainly: Effect on the activity of elastase was determined as IC50. The series is classed as functional.
The species named for series [10] is Homo sapiens. Put plainly: cells.

Dipeptidyl peptidase 4 (Mus musculus), sequence (P28843 whole entry, looked up): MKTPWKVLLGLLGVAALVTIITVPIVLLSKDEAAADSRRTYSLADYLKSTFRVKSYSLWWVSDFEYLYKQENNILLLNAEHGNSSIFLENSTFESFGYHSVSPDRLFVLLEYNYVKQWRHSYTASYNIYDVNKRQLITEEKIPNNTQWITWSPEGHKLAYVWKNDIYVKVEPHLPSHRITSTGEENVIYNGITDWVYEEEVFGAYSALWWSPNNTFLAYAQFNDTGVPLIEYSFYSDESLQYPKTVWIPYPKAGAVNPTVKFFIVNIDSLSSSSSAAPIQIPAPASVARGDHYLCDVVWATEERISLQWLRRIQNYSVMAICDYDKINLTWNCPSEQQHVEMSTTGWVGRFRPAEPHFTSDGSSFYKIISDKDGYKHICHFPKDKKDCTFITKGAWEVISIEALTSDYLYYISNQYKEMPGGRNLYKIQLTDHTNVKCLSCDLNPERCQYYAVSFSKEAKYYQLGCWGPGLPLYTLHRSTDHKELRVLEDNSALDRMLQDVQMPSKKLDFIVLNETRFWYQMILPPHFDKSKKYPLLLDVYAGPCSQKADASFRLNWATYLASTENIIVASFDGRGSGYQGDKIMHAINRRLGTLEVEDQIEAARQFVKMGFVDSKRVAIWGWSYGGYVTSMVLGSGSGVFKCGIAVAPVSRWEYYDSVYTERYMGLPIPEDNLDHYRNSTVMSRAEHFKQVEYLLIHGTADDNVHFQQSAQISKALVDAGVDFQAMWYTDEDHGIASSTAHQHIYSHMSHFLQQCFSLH
Dipeptidyl peptidase 4, sequence (P27487 whole entry): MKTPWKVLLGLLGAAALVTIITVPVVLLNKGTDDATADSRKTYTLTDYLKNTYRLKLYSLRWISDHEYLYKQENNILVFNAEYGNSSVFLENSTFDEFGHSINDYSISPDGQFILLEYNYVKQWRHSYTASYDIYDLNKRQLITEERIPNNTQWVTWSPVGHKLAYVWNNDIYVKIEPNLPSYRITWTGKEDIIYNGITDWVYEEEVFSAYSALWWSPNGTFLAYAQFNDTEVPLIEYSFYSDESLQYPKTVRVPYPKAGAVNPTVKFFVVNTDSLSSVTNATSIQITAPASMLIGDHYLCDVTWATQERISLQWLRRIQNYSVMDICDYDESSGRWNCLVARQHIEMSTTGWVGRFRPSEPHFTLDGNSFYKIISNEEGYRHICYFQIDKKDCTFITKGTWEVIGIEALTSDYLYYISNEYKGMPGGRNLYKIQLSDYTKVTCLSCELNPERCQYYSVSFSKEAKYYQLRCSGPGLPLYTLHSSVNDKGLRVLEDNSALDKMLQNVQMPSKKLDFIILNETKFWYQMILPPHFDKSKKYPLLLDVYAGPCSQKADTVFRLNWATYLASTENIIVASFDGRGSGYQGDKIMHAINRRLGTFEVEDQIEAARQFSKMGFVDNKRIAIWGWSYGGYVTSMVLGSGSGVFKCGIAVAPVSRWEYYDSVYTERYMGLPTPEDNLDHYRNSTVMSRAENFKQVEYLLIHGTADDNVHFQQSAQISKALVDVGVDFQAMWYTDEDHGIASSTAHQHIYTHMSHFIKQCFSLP

What is called pIC50 is −log10 of the IC50, conventionally taken in molar units. The low end stands for a large IC50, the high end for a small IC50. `Cl.NC(=O)Nc1cccc(OP(=O)(OC2=CC=CC(NC(N)=O)C2)C2CCCN2C(=O)C2CCCN2)c1` (stereo not given) gave a negative-log IC50 (pIC50) on Dipeptidyl peptidase 4 of 5.64.
Consider `COC(=O)c1ccc(OP(=O)(Oc2ccc(C(=O)OC)cc2)C2CCCN2C(=O)C2CCCN2)cc1` (stereo not given), for which the Specificity is 4 in series [1] and 73 in series [2].
The half-life is how long it takes for the measured level to halve. Take `COC(=O)CCNC(=O)c1ccc(OP(=O)(Oc2ccc(C(=O)NCCC(=O)OC)cc2)C2CCCN2C(=O)C2CCCN2)cc1.Cl` (stereo not given): the half-life in [3] is 26 min. Also, the Specificity in [1] turned out to be 0; in [2], 83.
The matching figures for `CCCNC(=O)c1ccc(OP(=O)(Oc2ccc(C(=O)NCCC)cc2)C2CCCN2C(=O)C2CCCN2)cc1.Cl` (stereo not given): 12 min, 5 and 97.
Consider `COc1ccc(OP(=O)(Oc2ccc(OC)cc2)C2CCCN2C(=O)C2CCCN2)cc1.Cl` (stereo not given), for which the half-life in series [3] is 470 min. Moreover, the pIC50 against Dipeptidyl peptidase 4 is 4.66.
As for `CC(=O)Nc1cccc(OP(=O)(Oc2cccc(NC(C)=O)c2)C2CCCN2C(=O)C2CCCN2)c1.Cl` (stereo not given), the half-life in series [3] was 220 min.
As for `CC(=O)Nc1ccc(OP(=O)(Oc2ccc(NC(C)=O)cc2)C2CCCN2C(=O)C2CCCN2)cc1.Cl` (stereo not given), the Specificity in [4] amounted to 96; in the series listed under Homo sapiens [5], 105; in series [6], 99; in series [1], 60; in [2] it was 96; in [7], 83. This compound yielded a Specificity in series [8] of 100.
As to `Cl.O=C([C@@H]1CCCN1)N1CCCC1P1(=O)Oc2ccccc2-c2ccccc2O1` (stereo not given in full), in series [3], the half-life was 6 min. Moreover, the pIC50 against Dipeptidyl peptidase 4 is 4.51.
Consider `CS(=O)(=O)Nc1ccc(OP(=O)(Oc2ccc(NS(C)(=O)=O)cc2)C2CCCN2C(=O)C2CCCN2)cc1.Cl` (stereo not given), for which, in series [3], the half-life is 150 min. The Specificity in series [1] stood at 4; in [2], 73.
With `Cl.O=C(C1CCCN1)N1CCCC1P(=O)(Oc1ccc(O)cc1)Oc1ccc(O)cc1` (stereo not given), in series [3], the half-life is more than 200 min. Moreover, at Dipeptidyl peptidase 4, the negative logarithm of the IC50 (pIC50) is 3.72.
For `CCOC(=O)CNC(=O)c1ccc(OP(=O)(Oc2ccc(C(=O)NCC(=O)OCC)cc2)C2CCCN2C(=O)C2CCCN2)cc1.Cl` (stereo not given), in [3], the half-life was 35 min. The Specificity in series [4] came out at 94; in the series filed under Homo sapiens [5] it was 6; in series [1], 1; in series [2], 85; in series [7], 66; in series [8], 78. In addition, the negative-log IC50 (pIC50) in the series listed under Homo sapiens [9] was 3.99.
Turning to `Cl.O=C(CNC(=O)c1ccccc1)Nc1ccc(OP(=O)(Oc2ccc(NC(=O)CNC(=O)c3ccccc3)cc2)C2CCCN2C(=O)C2CCCN2)cc1` (stereo not given), in series [3], the half-life is 93 min. Besides, the Specificity in series [1] is 32; in series [2] it was 92.
Turning to `Cl.O=C(C1CCCN1)N1CCCC1P(=O)(Oc1ccc(NN2CCCC2)cc1)Oc1ccc(NN2CCCC2)cc1` (stereo not given), at Dipeptidyl peptidase 4, the pIC50 was 5.30.
Take `C[C@H](N)C(=O)Nc1ccc(OP(=O)(Oc2ccc(NC(=O)[C@@H](C)N)cc2)C2CCCN2C(=O)C2CCCN2)cc1.Cl` (stereo not given in full): the half-life in series [3] was 8 min. For the same compound, the Specificity in series [1] is 47; in [2], 88. Moreover, at Dipeptidyl peptidase 4, the pIC50 was 6.22.
In turn, `O=C(C1CCCN1)N1CCCC1P(=O)(OCC(F)(F)F)OCC(F)(F)F` (stereo not given) had a negative logarithm of the IC50 (pIC50) at Dipeptidyl peptidase 4 of 2.04.
Turning to `Cl.O=C([C@H]1CCCN1)N1CCCC1P(=O)(Oc1ccccc1)Oc1ccccc1` (stereo not given in full), the half-life in series [3] is 300 min. For the same compound, the Specificity turned out to be 82 in the series listed under Homo sapiens [5]; 100 in [6]; 71 in series [1]; 107 in series [2]; 73 in series [7]; 102 in series [8]. In the series filed under Homo sapiens [10], this compound showed a negative-log IC50 (pIC50) of 4.00.
In the case of `O=C(C1CCCN1)N1CCCC1P(=O)(OCC(Cl)(Cl)Cl)OCC(Cl)(Cl)Cl` (stereo not given), on Dipeptidyl peptidase 4, the pIC50 is 2.74.
As for `COC(=O)C(Cc1ccc(OP(=O)(Oc2ccc(CC(NC(C)=O)C(=O)OC)cc2)C2CCCN2C(=O)C2CCCN2)cc1)NC(C)=O` (stereo not given), the Specificity in [1] was determined as 35; in [2] it was 102.
Regarding `Cl.NCC(=O)Nc1ccc(OP(=O)(Oc2ccc(NC(=O)CN)cc2)C2CCCN2C(=O)C2CCCN2)cc1` (stereo not given), in series [3], the half-life was 28 min.
